Test results taken from patent US10927075B2, “Compositions and methods relating to the treatment of cancer, autoimmune disease, and neurodegenerative disease” (THE JACKSON LABORATORY, priority 2014, dated 2021).

Tests used:
[1] = tested on: AID−/− or p53−/− primary mouse B cells; assay: Micronuclei assay; format: cell-based; details: 100 nM, 3 days
B cells = assay: Western Blot of apoptotic markers PARP-1 and caspase-9; format: cell-based
Method: Cell death mediated by C-1523 is p53-dependent. It was hypothesized that AID-dependent cytotoxicity induced by C-1523 would be associated with p53-mediated apoptosis. To test the importance of p53, a central regulator of cellular responses to DNA damage, viability was measured in mouse primary B-cells from Trp53+/+ versus Trp53−/− mice following exposure to C-1523. […] Caspase 3 activation, a marker of apoptotic cell death, was measured in C-1523 treated B-cells. B-cells were stained with an antibody that recognizes cleaved, activated caspase-3 (AC3) and the number of AC3-positive cells was measured via immunofluorescence microscopy. Following 10 Gy of ionizing irradiation Trp53+/+(WT), but not Trp53−/− cultures show a >30-fold increase in the percentage of AC3+ cells, confirming Trp53 dependent apoptosis in these cells after DNA damage. […] In order to more completely rule out apoptosis as the mode of cell death following C-1523 treatment in B cells, the expression of other common markers of apoptotic induction was examined via Western Blot.

[2] = tested on: WT, AID−/−, or Trp53−/− B-cells; assay: Active caspase-3 (AC3) immunofluorescence; format: cell-based, mouse; details: 100 nM, 3 days after activation
Method: FIG. 16A depicts the measurement of viability of primary WT (AID+/+, circle markers), AID−/− (square markers), and p53−/− (triangle markers) B cells under activating conditions (αCD40 and IL-4 on days 0 and 2) and treated with either DMSO (filled in markers) or 100 nM C-1523 (open markers). Measurement of cell viability was determined by Trypan Blue staining and counting of viable, non-staining, cells via hemocytometer. Data are represented as the mean cell count for each condition. FIG. 16B depicts analysis of cell death on day 4 of cells treated as in FIG. 16A. Cell death was measured by Trypan Blue staining and counting of blue, dead cells via hemocytometer. FIG. 16C depicts quantitation of active caspase-3 (AC3) in primary B cells via immunofluorescence assay. Left, positive (WT, 10 Gy IR) and negative (0 Gy, and p53−/− 10 Gy) controls for AC3 induction. […]
Cell death mediated by C-1523 is p53-dependent. […] To test the importance of p53, a central regulator of cellular responses to DNA damage, viability was measured in mouse primary B-cells from Trp53+/+ versus Trp53−/− mice following exposure to C-1523. […] Caspase 3 activation, a marker of apoptotic cell death, was measured in C-1523 treated B-cells. B-cells were stained with an antibody that recognizes cleaved, activated caspase-3 (AC3) and the number of AC3-positive cells was measured via immunofluorescence microscopy. […]

[3] = tested on: primary, activated WT versus AID−/− cells; assay: RNASeq and Ingenuity Pathways Analysis; format: cell-based, mouse; details: 100 nM, 60 hours after activation
Method: FIG. 17A depicts a schematic for the fold-change (FC) analysis performed on RNASeq data from the indicated treatment groups. RNA was prepared from cells 60 hours after activation (αCD40 and IL-4) and treatment with DMSO or 100 nM C-1523. Pathway analysis was performed by Ingenuity Pathway Analysis (IPA). FIGS. 17B-17D depict the top 10 pathways for the Unique to FC1 (FIG. 17B) and FC2 (FIG. 17C) analysis and all pathways for the FC1>FC2 (DOWN) and F2>FC1 (UP) analysis (FIG. 17D). Within each bar (in white), is the ratio of genes from that pathway implicated by IPA. The dashed line indicates the 0.05 significance threshold for significant (bars crossing it) vs non-significant pathways. The mechanism of cell death is non-apoptotic and is via mitotic catastrophe.
C-1523 induces non-apoptotic cell death via non-apoptotic mitotic catastrophe. The surprising lack of apoptotic cell death induced by C-1523 prompted us to evaluate gene expression signatures to identify other potential cell death pathways. […]
RNASeq Analysis. […] The filtered and trimmed reads were then aligned to mm10 using tophat (v2.0.7). The aligned bam file was then passed through Cufflinks (v2.0.2) and reads per gene are counted using htseq-count. edgeR. […]

[4] = tested on: primary splenic B-cells from AID−/− mice; assay: Expansion and viability of activated primary splenic B-cells; details: 50-250 nM, four days, αCD40+IL-4 activation
[5] = tested on: primary, AID expressing B-cells; assay: Live cell imaging of nuclei fragmentation; format: cell-based, mice; details: 100 nM, individual cell imaged at 20 minute intervals
Method: FIG. 22 depicts live cell imaging of primary, AID expressing B-cells treated with 100 nM C-1523. Histone H2B-EGFP transgenic mice were used as a source of B-cells to facilitate imaging of chromatin. The top panel depicts an individual cell imaged at 20 minute intervals for 460 minutes. Images show chromosomal fragmentation commencing at 120 minutes. Data in the bottom panels depict quantification of live cell imaging depicting the fraction of cells that commence fragmentation at each time point (bottom left panel) and the cumulative fraction of fragmented nuclei (bottom right panel).
AID+/+ or AID−/− B-cells were cultured with 100 nM and cell cycle profiles were determined by propidium iodide staining and flow cyotmetry at intervals up to 96 hours. Non-activated (CD40) cells were used as a negative control; activated cells treated with the microtuble poison colcemid (ACT+colcemid) were used as a positive control. Nuclei fragmentation analysis of primary, AID expressing B-cells treated with 100 nM C-1523 was conducted (FIG. 22).

primary B-cells (AID+) = assay: Dose response in primary B-cells (AID+); format: cell-based; details: FIG. 10
Method: Dose responses for C-1523 (blue) and C-1523-1a (red) in primary B-cells (AID+) was determined (FIG. 10).

CC(=O)Nc1ccc(/C=C/c2ccc(NC(=S)NC(C)C)cc2S(=O)(=O)O)c(S(=O)(=O)O)c1 [C-1523, (E)-5-acetamido-2-(4-(3-isopropylthioureido)-2-sulfonatostyryl)benzenesulfonate]
acute side effects relative to DIDS (in vivo): no increased acute side effects | acute toxicity (in vivo): almost no acute toxicity | tolerance to prolonged drug exposure (single and multiple dose): excellent tolerance | fraction of micronuclei [1]: no increase in the fraction of micronuclei | cleavage of PARP-1 or caspase-9 (B cells; 2 days following activation): no cleavage of PARP-1 or caspase-9 was observed | cleaved PARP-1 and caspase-9 (B cells; 3 days): not due to C-1523 treatment specifically | caspase 3 activation [2]: did not significantly induce caspase 3 activation | most significantly altered pathways (IPA) [3]: did not identify any previously annotated cell death pathways | cellular expansion [4]: expanded identically to vehicle-treated controls | time at which chromosomal fragmentation commences [5]: 120 min | concentration above which dose response is inverted (primary B-cells (AID+)): above 100 nM
